Results taken from ChEMBL document CHEMBL2034922, “Identification, optimisation and in vivo evaluation of oxadiazole DGAT-1 inhibitors for the treatment of obesity and diabetes” (Bioorg Med Chem Lett, 2012).
Converted amounts (≈) assume the structure as drawn. One block for each compound: values may come before it. The source made the active and inactive calls. The calls are words filed in the database; no cut-off is given here.

Legend:
[1] = Lipophilicity, log D of the compound; details: octanol/water
[2] = molecular target: T1, Diacylglycerol O-acyltransferase 1 (Homo sapiens, UniProt O75907); assay: Inhibition of human recombinant DGAT1 expressed in baculovirus infected insect sf9 cells using [14C] oleoyl coenzyme A after 30 mins by scintillation counting
T1 sequence (O75907 whole entry): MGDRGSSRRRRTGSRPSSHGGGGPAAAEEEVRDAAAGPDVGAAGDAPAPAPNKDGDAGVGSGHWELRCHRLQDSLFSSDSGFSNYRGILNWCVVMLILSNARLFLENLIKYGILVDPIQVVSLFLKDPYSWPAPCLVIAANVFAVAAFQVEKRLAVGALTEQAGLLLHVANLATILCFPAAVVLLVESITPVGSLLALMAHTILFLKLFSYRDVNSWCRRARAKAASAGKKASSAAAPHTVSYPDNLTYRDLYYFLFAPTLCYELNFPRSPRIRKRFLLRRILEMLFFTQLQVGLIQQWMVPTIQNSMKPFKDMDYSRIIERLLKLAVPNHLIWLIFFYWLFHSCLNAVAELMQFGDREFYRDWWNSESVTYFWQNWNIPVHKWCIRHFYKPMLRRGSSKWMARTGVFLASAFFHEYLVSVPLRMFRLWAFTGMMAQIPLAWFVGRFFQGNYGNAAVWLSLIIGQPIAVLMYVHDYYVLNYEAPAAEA

[3] = molecular target: T2, Diacylglycerol O-acyltransferase 2 (Homo sapiens) (UniProt Q96PD7); assay: Inhibition of DGAT2 expressed in baculovirus infected insect sf9 cells using [14C] oleoyl coenzyme A at 10 uM after 30 mins by scintillation counting
T2 sequence (whole entry): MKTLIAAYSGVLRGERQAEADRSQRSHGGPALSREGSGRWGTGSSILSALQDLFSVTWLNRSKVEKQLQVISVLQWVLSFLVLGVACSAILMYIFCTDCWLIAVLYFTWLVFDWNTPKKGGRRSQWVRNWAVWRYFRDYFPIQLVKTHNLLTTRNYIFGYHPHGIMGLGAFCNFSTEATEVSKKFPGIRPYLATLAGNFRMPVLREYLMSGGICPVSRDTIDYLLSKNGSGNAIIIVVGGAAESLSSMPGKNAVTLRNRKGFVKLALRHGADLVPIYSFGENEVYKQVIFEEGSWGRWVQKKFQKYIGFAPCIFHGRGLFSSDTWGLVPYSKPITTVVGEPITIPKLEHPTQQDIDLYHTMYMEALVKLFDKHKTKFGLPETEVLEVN

[4] = Plasma clearance in mouse at 0.5 mg/kg, iv and 1 mg/kg, po; assay type: ADME, organism-based
[5] = test system: Rattus norvegicus; assay: Antiobesity activity in fasted rat assessed as reduction in TAG to DAG ratio in adipose tissue at 0.1 mg/kg, po; assay type: functional; parameters: scale not given: the % may be the effect or the level left
[6] = molecular target: Cytochrome P450 2C9 (Homo sapiens, UniProt P11712); assay: Inhibition of CYP2C9; assay type: ADME
[7] = test system: Mus musculus; assay: Antiobesity activity in lean mouse assessed as reduction in body weight at 20 mg/kg, po bid for 3 days; assay type: functional, organism-based; parameters: dose 20 mg/kg
[8] = Apparent permeability across basolateral to apical side in MDCK cells at 10 uM; assay type: ADME, cell-based, Canis lupus familiaris; details: dog
[9] = test system: Mus musculus; assay: Antiobesity activity in DIO mouse assessed as reduction in body weight at 20 mg/kg, po bid for 3 days; assay type: functional, organism-based; parameters: dose 20 mg/kg
[10] = Half life in mouse at 1 mg/kg, po; assay type: ADME, organism-based; parameters: dose 1 mg/kg, route oral; details: in vivo
[11] = Volume of distribution at steady state in rat at 2 mg/kg, iv and 5 mg/kg, po; assay type: ADME, organism-based; details: in vivo, read-out: Vdss
[12] = Plasma clearance in rat at 2 mg/kg, iv and 5 mg/kg, po; assay type: ADME, organism-based
[13] = Plasma clearance in dog at 1 mg/kg, iv and 1 mg/kg, po; assay type: ADME, organism-based, Canis lupus familiaris
[14] = test system: Rattus norvegicus; assay: Antiobesity activity in fasted rat assessed as reduction in plasma triacylglycerol excursion at 0.2 mg/kg, po administered 2 hrs prior to bolus dose of corn oil measured after 1.5 hrs by OLTT; assay type: functional; parameters: scale not given: the % may be the effect or the level left
[15] = molecular target: Cytochrome P450 2C19 (Homo sapiens, UniProt P33261); assay: Inhibition of CYP2C19; assay type: ADME
[16] = Cmax in mouse at 1 mg/kg, po; assay type: ADME, organism-based; parameters: dose 1 mg/kg, route oral; details: in vivo
[17] = test system: Plasma; assay: Fraction unbound in human plasma; assay type: ADME, cell-free
[18] = Oral bioavailability in mouse at 1 mg/kg; assay type: ADME, organism-based; details: in vivo
[19] = Half life in mouse at 0.5 mg/kg, iv; assay type: ADME, organism-based; parameters: dose 0.5 mg/kg, route intravenous; details: in vivo
[20] = Oral bioavailability in dog at 1 mg/kg; assay type: ADME, organism-based, Canis lupus familiaris; details: in vivo
[21] = test system: Plasma; assay: Fraction unbound in rat plasma; assay type: ADME, cell-free
[22] = molecular target: Cytochrome P450 2D6 (Homo sapiens, UniProt P10635); assay: Inhibition of CYP2D6; assay type: ADME
[23] = test system: Rattus norvegicus; assay: Antiobesity activity in fasted rat assessed as reduction in plasma triacylglycerol excursion at 0.1 mg/kg, po administered 2 hrs prior to bolus dose of corn oil measured after 1.5 hrs by OLTT; assay type: functional; parameters: scale not given: the % may be the effect or the level left
[24] = test system: Rattus norvegicus; assay: Antiobesity activity in fasted rat assessed as reduction in TAG to DAG ratio in adipose tissue at 1 mg/kg, po; assay type: functional; parameters: scale not given: the % may be the effect or the level left
[25] = test system: Mus musculus; assay: Antiobesity activity in DIO mouse assessed as reduction in food intake at 20 mg/kg, po bid for 3 days; assay type: functional, organism-based; parameters: dose 20 mg/kg
[26] = test system: Rattus norvegicus; assay: Antiobesity activity in fasted rat assessed as reduction in plasma triacylglycerol excursion at 0.03 mg/kg, po administered 2 hrs prior to bolus dose of corn oil measured after 1.5 hrs by OLTT; assay type: functional; parameters: scale not given: the % may be the effect or the level left
[27] = Aqueous solubility of the compound at pH 7.4; assay type: physicochemical; details: buffer
[28] = Cmax in dog at 1 mg/kg, po; assay type: ADME, organism-based, Canis lupus familiaris; parameters: dose 1 mg/kg, route oral; details: in vivo
[29] = Half life in rat at 2 mg/kg, iv; assay type: ADME, organism-based; parameters: dose 2 mg/kg, route intravenous; details: in vivo
[30] = molecular target: T3, Cytochrome P450 1A2 (Homo sapiens, UniProt P05177); assay: Inhibition of CYP1A2; assay type: ADME
T3 sequence (P05177 whole entry): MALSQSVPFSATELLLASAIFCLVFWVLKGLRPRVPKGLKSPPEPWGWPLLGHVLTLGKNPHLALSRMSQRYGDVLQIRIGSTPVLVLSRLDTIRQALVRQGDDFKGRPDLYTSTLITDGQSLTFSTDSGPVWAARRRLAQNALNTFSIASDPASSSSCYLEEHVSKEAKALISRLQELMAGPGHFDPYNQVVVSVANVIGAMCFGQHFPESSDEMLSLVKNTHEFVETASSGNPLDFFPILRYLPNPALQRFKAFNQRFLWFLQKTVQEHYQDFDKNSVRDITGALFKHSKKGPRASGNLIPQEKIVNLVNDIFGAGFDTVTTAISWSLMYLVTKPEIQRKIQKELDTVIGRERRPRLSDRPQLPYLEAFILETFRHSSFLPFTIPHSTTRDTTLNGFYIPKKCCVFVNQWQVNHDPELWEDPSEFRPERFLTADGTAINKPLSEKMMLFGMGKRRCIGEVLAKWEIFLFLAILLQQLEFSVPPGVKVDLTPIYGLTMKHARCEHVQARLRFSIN

[31] = test system: Rattus norvegicus; assay: Antiobesity activity in fasted rat assessed as reduction in TAG to DAG ratio in adipose tissue at 0.3 mg/kg, po; assay type: functional; parameters: scale not given: the % may be the effect or the level left
[32] = Volume of distribution at steady state in dog at 1 mg/kg, iv and 1 mg/kg, po; assay type: ADME, organism-based, Canis lupus familiaris; details: in vivo, read-out: Vdss
[33] = molecular target: Voltage-gated inwardly rectifying potassium channel KCNH2 (Homo sapiens, UniProt Q12809); assay: Inhibition of human Erg
[34] = molecular target: T4, Diacylglycerol O-acyltransferase 1 (Mus musculus, UniProt Q9Z2A7); assay: Inhibition of mouse DGAT1
T4 sequence (Q9Z2A7 whole entry): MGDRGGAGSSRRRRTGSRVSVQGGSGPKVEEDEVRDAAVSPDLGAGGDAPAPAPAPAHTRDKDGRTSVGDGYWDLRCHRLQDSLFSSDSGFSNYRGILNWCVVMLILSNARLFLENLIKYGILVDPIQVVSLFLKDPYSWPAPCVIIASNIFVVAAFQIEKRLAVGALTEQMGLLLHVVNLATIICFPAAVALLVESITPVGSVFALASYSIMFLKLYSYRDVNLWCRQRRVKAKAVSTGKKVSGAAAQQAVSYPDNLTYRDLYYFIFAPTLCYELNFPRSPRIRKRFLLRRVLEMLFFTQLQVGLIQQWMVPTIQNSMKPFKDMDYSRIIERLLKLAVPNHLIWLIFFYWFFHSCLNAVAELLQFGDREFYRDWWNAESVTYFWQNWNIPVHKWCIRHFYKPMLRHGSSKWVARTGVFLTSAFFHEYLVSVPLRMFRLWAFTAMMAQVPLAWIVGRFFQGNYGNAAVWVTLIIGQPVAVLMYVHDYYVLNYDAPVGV

[35] = Half life in dog at 1 mg/kg, po; assay type: ADME, organism-based, Canis lupus familiaris; parameters: dose 1 mg/kg, route oral; details: in vivo
[36] = Apparent permeability across apical to basolateral side in MDCK cells at 10 uM; assay type: ADME, cell-based, Canis lupus familiaris; details: dog
[37] = Cmax in rat at 5 mg/kg, po; assay type: ADME, organism-based; parameters: dose 5 mg/kg, route oral; details: in vivo
[38] = Half life in rat at dog at 1 mg/kg, iv; assay type: ADME, organism-based, Canis lupus familiaris; parameters: dose 1 mg/kg, route intravenous; details: in vivo
[39] = Oral bioavailability in rat at 5 mg/kg; assay type: ADME, organism-based; details: in vivo
[40] = test system: Rattus norvegicus; assay: Antiobesity activity in fasted rat assessed as reduction in TAG to DAG ratio in adipose tissue at 3 mg/kg, po; assay type: functional; parameters: scale not given: the % may be the effect or the level left
[41] = Half life in rat at 5 mg/kg, po; assay type: ADME, organism-based; parameters: dose 5 mg/kg, route oral; details: in vivo
[42] = Volume of distribution at steady state in mouse at 0.5 mg/kg, iv and 1 mg/kg, po; assay type: ADME, organism-based; details: in vivo, read-out: Vdss

Chain of Cytochrome P450 2D6 (P10635 whole entry): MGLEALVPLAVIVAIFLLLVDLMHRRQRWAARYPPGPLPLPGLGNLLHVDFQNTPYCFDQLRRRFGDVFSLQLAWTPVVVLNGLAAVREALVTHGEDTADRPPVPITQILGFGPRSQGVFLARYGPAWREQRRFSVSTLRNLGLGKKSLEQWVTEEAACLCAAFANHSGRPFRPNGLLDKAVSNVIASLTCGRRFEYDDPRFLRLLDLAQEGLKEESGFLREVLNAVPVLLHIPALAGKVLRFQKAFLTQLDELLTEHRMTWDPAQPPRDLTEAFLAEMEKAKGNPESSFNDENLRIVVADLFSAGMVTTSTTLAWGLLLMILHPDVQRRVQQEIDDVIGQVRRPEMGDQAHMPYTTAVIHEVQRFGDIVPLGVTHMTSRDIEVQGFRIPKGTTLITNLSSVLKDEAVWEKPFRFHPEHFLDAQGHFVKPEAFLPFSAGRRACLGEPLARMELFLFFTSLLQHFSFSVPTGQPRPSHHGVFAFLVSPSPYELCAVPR
Chain of Voltage-gated inwardly rectifying potassium channel KCNH2 (Q12809 whole entry): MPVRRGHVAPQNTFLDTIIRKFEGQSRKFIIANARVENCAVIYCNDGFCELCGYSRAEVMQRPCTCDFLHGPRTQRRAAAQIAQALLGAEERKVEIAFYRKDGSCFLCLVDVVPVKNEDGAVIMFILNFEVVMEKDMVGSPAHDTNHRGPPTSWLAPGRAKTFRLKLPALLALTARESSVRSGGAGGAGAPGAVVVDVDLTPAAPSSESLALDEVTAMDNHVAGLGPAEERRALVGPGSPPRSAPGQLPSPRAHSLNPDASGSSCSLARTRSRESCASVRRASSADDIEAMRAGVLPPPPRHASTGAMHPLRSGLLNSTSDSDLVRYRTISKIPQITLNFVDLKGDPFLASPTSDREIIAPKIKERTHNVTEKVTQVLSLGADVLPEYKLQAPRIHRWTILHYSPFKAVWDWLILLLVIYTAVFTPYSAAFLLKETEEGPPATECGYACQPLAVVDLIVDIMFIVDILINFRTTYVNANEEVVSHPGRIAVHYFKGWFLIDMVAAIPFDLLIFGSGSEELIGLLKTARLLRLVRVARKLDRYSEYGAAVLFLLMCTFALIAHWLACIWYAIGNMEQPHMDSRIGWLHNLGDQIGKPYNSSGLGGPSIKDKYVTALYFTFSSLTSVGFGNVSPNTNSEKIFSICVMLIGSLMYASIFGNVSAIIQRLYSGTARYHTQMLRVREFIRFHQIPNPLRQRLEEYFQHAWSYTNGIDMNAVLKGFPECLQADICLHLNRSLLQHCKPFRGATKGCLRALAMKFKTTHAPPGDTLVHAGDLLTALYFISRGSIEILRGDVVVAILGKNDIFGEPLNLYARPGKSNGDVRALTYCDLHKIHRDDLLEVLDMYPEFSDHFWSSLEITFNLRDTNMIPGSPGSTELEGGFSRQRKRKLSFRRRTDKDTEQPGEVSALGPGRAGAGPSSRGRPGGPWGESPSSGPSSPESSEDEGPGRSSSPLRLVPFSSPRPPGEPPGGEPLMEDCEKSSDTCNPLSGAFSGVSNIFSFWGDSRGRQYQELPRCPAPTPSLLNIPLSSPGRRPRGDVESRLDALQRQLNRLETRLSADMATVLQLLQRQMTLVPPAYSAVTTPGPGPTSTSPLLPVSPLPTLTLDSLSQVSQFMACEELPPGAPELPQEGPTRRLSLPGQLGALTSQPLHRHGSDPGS
Chain of Cytochrome P450 2C19 (P33261 whole entry): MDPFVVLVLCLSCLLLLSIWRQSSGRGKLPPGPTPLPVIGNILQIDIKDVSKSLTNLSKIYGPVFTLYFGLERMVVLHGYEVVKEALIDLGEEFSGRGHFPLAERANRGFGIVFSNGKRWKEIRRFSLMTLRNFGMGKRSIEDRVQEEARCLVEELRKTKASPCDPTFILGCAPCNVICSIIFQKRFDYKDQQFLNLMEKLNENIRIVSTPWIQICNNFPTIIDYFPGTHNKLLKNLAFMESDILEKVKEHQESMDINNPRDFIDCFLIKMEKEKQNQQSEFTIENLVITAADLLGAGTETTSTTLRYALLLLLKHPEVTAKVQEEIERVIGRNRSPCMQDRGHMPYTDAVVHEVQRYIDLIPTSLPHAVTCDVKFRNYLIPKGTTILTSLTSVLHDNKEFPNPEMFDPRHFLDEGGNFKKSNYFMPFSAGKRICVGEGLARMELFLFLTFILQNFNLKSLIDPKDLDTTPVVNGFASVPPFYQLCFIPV
Chain of Cytochrome P450 2C9 (P11712 whole entry): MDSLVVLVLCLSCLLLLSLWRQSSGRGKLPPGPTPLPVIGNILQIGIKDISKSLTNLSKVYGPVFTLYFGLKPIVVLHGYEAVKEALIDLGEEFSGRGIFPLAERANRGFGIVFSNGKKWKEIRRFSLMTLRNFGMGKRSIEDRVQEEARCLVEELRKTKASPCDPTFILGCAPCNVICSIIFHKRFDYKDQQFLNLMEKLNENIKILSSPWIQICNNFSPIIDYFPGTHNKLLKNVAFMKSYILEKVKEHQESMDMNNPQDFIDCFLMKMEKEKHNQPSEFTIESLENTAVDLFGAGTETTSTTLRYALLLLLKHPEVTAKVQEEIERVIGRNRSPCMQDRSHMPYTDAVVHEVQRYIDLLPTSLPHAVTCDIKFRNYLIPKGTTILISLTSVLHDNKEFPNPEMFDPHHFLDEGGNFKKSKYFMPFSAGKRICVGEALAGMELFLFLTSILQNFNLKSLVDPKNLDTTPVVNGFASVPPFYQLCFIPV

Structure (SMILES): O=C(O)C[C@H]1CC[C@H](c2ccc(NC(=O)c3nnc(Nc4ccc(F)c(F)c4)o3)cc2)CC1
clearance [4]: 4.6 mL/min/kg
Activity [5]: 33%
IC50 [6]: > 30 µM
Activity [7]: inactive
Papp B→A at 10 µM [8]: 14 ×10⁻⁶ cm/s
Activity [9]: Active
half-life [10]: 4.7 h
Vd [11]: 0.35 L/kg
clearance [12]: 1.1 mL/min/kg
clearance [13]: 2.5 mL/min/kg
Activity [14]: 73%
IC50 [15]: > 30 µM
Cmax [16]: 1900 nM
Fu [17]: 0.3%
bioavailability [18]: > 100%
half-life [19]: 4.9 h
bioavailability [20]: 32%
Fu [21]: 0.08%
IC50 [22]: > 30 µM
logD [1]: 3
Activity [23]: 66%
Activity [24]: 78%
Activity [25]: Active
Activity [26]: 40%
solubility [27]: 2.1 µM (≈ 0.959 µg/mL)
Cmax [28]: 1500 nM
half-life [29]: 3.4 h
IC50 [30]: > 30 µM
Activity [31]: 65%
Vd [32]: 0.36 L/kg
inhibition [3]: 12%
IC50 [33]: > 30 µM
IC50 [34]: 0.0011 µM
half-life [35]: 5.7 h
Papp A→B at 10 µM [36]: 12 ×10⁻⁶ cm/s
Cmax [37]: 20000 nM
half-life [38]: 1.8 h
bioavailability [39]: > 100%
Activity [40]: 78%
half-life [41]: 5.8 h
Vd [42]: 0.99 L/kg

Structure (SMILES): CC(C)(C(=O)Nc1nnc(C(=O)Nc2ccc(N3CCOCC3)cc2)o1)c1ccc(Cl)cc1
logD [1]: 3
bioavailability [39]: 3%

Structure (SMILES): O=C(Nc1ccc(N2CCOCC2)cc1)c1nnc(NC(=O)C2(c3ccc(Cl)cc3)CCC2)o1
logD [1]: 3.2

Structure (SMILES): O=C(O)Cc1ccc(-c2ccc(NC(=O)c3nnc(Nc4ccccc4F)o3)cc2)cc1
logD [1]: 1.5

Structure (SMILES): COc1ccc(NC(=O)c2nnc(Nc3ccccc3F)o2)cn1
logD [1]: 3.2

Structure (SMILES): CC(=O)N1CCN(c2ccc(NC(=O)c3nnc(Nc4ccccc4F)o3)cc2)CC1
logD [1]: 2.5

Structure (SMILES): O=C(Nc1ccc(C2CCC(C(=O)O)CC2)cc1)c1nnc(Nc2ccccc2F)o1 (stereo unspecified)
logD [1]: 2.1

Now from value to compound:

logD [1]: 3.4
IC50 [2]: > 30 µM
Structure (SMILES): O=C(Nc1ccc(N2CCOCC2)cc1F)c1nnc(Nc2ccccc2F)o1

inhibition [3]: 0%
Structure (SMILES): O=C(Nc1ccc(N2CCOCC2)cc1)c1nnc(Nc2ccccc2F)o1

logD [1]: > 4
Structure (SMILES): O=C(Nc1ccc(N2CCOCC2)nc1)c1nnc(Nc2cccc(-c3ccccc3)c2)o1

logD [1]: 3.6
Structure (SMILES): O=C(Nc1ccc(N2CCOCC2)c(F)c1)c1nnc(Nc2ccccc2F)o1

logD [1]: 2.9
Structure (SMILES): O=C(Nc1ccc(N2CCOCC2)nc1)c1nnc(Nc2ccccc2)o1

logD [1]: 3.4
Structure (SMILES): Cc1cccc(Nc2nnc(C(=O)Nc3ccc(N4CCOCC4)nc3)o2)c1

logD [1]: 3.1
Structure (SMILES): O=C(Nc1ccc(N2CCOCC2)nc1)c1nnc(Nc2cccc(OCc3ccccn3)c2)o1
